Data taken from patent US8703804B2, “Ryanodine receptor inhibitors and methods relating thereto” (UTI Limited Partnership, priority 2006, dated 2014).
Entries after “also recorded” stand apart in the source; their conditions may differ. Where two headings read alike, the source gives them in different places.

Experiments:
[1] = test system: β-adrenergic receptor; experiment: β-blocking: isoproterenol-induced phosphorylation of RyR2 at serine-2030 in rat cardiac myocytes (Western blot); format: cell-based; settings: 200 nM isoproterenol; for concentration that completely blocks the β-adrenergic receptor: S2030 phosphorylation
Description: The β-adrenergic receptors were then stimulated by the addition of 200 nM isoproterenol (Iso) in the continued presence of drugs for 30 min at 37° C. Whole cell lysates were prepared and used for Western blotting (WB) analyses.
It is known that stimulation of the β-adrenergic receptor (AR) by isoproterenol leads to the activation of the cAMP/protein kinase A (PKA) signaling pathway, which, in turn, results in the phosphorylation by PKA of various protein targets, including the RyR2 channel. RyR2 is specifically phosphorylated at the residue serine-2030 (S2030) upon β-AR stimulation by isoproterenol (Xiao et al., 2005). […] To do this, freshly isolated rat cardiac myocytes are pre-treated with various concentrations of the selected compounds for 5 min, followed by stimulation of the β-AR with 100-200 nM isoproterenol in the continued presence of the selected compounds for 30 min. Whole cell lysates are then prepared and used for determining the level of phosphorylation of RyR2 at S2030 by Western blotting using a site- and phospho-specific antibody against the phosphorylated S2030 site.

[2] = test system: SOICR in rat ventricular myocytes; experiment: SOICR in rat ventricular myocytes (single cell Ca2+ imaging, fluo-4); format: cell-based; settings: for IC50: Rattus norvegicus, Ventricular myocyte
Description: Rat ventricular myocytes were loaded with a fluorescent Ca^2+ indicator, fluo 4-AM, and incubated at a high concentration of external Ca^2+ (10 mM) to induced SR Ca^2+ overload and SOICR, which manifests as Ca^2+ oscillations.
In the experiments shown in FIG. 3, rat ventricular myocytes were loaded with a fluorescent Ca^2+ indicator, fluo-4, and incubated at a high concentration of extracellular Ca^2+ (10 mM) to induce SR Ca^2+ overload and SOICR, which manifests as Ca^2+ waves/oscillations. These Ca^2+ oscillations were monitored by a single cell Ca^2+ imaging technique.
(§1) Further verification of whether these identified compounds also work in cardiac cells, the effect of these compounds on SOICR in rat ventricular myocytes may also be determined. Rat ventricular myocytes may be isolated according to the standard procedure using enzymatic digestion. Freshly isolated cells are loaded with a fluorescent Ca^2+ dye, fluo 4-AM, and bathed at high concentrations of extracellular Ca^2+ (5-10 mM) to induce SR Ca^2+ overload and SOICR. The intracellular Ca^2+ transients as a result of SOICR will be monitored by measuring the fluorescent intensity using a fluorescent microscope. Various concentrations of the selected compounds (10 nM to 100 μM) will be applied and the resulting changes in intracellular Ca^2+ transients will be determined and analyzed.

[3] = target: β-adrenergic receptors; settings: Yao et al., 2003; read-out: IC50 of β-blocking activity; cited from earlier work
[4] = patients with heart failure; Miller, 2003; cited from earlier work
[5] = test system: RyR2-R4496C KI mice; experiment: Stress-induced ventricular tachycardia in RyR2-R4496C knock-in mice (CPVT model); format: in vivo, mouse; settings: 16 mg/kg/day i.p. for 5 days, preliminary
Description: The electrocardiograms (ECG) of the R4496C KI mice were continuously monitored by using telemetric ECG recordings before and after the injection of epinephrine and caffeine. The incidence of ventricular tachycardia (VT) was assessed by determining the duration of VT occurring during a 2-min period (% of time).
In order to assess the efficacy of compounds of the present invention in suppressing cardiac arrhythmia at the animal level, genetically engineered knock-in mice were generated harboring RyR2 mutations that are associated with cardiac arrhythmia and sudden death. A heterozygous knock-in mouse line harboring the disease-causing RyR2 mutation, R4496C, has been prepared. Similar to patients who carry the mutation, the R4496C mutant mice are likely prone to stress-induced cardiac arrhythmia and sudden death. If this is the case, this R4496C mouse model may be used to test if compounds of the present invention are able to reduce the incidence of stress-induced cardiac arrhythmia and sudden death. Briefly, mutant mice will be pretreated with or without a positive compound identified above. Epinephrine and caffeine will be injected into the mutant mice to induce cardiac arrhythmia. Telemetric ECG recordings will be used to monitor the cardiac activity at rest and during epinephrine and caffeine perfusion. […]

[6] = test system: RyR2; experiment: Initial investigations studying RyR2: suppression of SOICR by analogues; format: cell-based
[7] = target: RyR2 channel (Homo sapiens, UniProt Q92736); settings: Honen et al., 2003; cited from earlier work
[8] = target: T1, RyR2-N4104K mutant (Mus musculus, UniProt E9Q401, N4103K); experiment: SOICR in HEK293 cells expressing the N4104K RyR2 mutant; format: cell-based
T1 construct: expressed in transfected cells; host or cells: HEK293
T1 sequence (E9Q401 whole entry N4103K): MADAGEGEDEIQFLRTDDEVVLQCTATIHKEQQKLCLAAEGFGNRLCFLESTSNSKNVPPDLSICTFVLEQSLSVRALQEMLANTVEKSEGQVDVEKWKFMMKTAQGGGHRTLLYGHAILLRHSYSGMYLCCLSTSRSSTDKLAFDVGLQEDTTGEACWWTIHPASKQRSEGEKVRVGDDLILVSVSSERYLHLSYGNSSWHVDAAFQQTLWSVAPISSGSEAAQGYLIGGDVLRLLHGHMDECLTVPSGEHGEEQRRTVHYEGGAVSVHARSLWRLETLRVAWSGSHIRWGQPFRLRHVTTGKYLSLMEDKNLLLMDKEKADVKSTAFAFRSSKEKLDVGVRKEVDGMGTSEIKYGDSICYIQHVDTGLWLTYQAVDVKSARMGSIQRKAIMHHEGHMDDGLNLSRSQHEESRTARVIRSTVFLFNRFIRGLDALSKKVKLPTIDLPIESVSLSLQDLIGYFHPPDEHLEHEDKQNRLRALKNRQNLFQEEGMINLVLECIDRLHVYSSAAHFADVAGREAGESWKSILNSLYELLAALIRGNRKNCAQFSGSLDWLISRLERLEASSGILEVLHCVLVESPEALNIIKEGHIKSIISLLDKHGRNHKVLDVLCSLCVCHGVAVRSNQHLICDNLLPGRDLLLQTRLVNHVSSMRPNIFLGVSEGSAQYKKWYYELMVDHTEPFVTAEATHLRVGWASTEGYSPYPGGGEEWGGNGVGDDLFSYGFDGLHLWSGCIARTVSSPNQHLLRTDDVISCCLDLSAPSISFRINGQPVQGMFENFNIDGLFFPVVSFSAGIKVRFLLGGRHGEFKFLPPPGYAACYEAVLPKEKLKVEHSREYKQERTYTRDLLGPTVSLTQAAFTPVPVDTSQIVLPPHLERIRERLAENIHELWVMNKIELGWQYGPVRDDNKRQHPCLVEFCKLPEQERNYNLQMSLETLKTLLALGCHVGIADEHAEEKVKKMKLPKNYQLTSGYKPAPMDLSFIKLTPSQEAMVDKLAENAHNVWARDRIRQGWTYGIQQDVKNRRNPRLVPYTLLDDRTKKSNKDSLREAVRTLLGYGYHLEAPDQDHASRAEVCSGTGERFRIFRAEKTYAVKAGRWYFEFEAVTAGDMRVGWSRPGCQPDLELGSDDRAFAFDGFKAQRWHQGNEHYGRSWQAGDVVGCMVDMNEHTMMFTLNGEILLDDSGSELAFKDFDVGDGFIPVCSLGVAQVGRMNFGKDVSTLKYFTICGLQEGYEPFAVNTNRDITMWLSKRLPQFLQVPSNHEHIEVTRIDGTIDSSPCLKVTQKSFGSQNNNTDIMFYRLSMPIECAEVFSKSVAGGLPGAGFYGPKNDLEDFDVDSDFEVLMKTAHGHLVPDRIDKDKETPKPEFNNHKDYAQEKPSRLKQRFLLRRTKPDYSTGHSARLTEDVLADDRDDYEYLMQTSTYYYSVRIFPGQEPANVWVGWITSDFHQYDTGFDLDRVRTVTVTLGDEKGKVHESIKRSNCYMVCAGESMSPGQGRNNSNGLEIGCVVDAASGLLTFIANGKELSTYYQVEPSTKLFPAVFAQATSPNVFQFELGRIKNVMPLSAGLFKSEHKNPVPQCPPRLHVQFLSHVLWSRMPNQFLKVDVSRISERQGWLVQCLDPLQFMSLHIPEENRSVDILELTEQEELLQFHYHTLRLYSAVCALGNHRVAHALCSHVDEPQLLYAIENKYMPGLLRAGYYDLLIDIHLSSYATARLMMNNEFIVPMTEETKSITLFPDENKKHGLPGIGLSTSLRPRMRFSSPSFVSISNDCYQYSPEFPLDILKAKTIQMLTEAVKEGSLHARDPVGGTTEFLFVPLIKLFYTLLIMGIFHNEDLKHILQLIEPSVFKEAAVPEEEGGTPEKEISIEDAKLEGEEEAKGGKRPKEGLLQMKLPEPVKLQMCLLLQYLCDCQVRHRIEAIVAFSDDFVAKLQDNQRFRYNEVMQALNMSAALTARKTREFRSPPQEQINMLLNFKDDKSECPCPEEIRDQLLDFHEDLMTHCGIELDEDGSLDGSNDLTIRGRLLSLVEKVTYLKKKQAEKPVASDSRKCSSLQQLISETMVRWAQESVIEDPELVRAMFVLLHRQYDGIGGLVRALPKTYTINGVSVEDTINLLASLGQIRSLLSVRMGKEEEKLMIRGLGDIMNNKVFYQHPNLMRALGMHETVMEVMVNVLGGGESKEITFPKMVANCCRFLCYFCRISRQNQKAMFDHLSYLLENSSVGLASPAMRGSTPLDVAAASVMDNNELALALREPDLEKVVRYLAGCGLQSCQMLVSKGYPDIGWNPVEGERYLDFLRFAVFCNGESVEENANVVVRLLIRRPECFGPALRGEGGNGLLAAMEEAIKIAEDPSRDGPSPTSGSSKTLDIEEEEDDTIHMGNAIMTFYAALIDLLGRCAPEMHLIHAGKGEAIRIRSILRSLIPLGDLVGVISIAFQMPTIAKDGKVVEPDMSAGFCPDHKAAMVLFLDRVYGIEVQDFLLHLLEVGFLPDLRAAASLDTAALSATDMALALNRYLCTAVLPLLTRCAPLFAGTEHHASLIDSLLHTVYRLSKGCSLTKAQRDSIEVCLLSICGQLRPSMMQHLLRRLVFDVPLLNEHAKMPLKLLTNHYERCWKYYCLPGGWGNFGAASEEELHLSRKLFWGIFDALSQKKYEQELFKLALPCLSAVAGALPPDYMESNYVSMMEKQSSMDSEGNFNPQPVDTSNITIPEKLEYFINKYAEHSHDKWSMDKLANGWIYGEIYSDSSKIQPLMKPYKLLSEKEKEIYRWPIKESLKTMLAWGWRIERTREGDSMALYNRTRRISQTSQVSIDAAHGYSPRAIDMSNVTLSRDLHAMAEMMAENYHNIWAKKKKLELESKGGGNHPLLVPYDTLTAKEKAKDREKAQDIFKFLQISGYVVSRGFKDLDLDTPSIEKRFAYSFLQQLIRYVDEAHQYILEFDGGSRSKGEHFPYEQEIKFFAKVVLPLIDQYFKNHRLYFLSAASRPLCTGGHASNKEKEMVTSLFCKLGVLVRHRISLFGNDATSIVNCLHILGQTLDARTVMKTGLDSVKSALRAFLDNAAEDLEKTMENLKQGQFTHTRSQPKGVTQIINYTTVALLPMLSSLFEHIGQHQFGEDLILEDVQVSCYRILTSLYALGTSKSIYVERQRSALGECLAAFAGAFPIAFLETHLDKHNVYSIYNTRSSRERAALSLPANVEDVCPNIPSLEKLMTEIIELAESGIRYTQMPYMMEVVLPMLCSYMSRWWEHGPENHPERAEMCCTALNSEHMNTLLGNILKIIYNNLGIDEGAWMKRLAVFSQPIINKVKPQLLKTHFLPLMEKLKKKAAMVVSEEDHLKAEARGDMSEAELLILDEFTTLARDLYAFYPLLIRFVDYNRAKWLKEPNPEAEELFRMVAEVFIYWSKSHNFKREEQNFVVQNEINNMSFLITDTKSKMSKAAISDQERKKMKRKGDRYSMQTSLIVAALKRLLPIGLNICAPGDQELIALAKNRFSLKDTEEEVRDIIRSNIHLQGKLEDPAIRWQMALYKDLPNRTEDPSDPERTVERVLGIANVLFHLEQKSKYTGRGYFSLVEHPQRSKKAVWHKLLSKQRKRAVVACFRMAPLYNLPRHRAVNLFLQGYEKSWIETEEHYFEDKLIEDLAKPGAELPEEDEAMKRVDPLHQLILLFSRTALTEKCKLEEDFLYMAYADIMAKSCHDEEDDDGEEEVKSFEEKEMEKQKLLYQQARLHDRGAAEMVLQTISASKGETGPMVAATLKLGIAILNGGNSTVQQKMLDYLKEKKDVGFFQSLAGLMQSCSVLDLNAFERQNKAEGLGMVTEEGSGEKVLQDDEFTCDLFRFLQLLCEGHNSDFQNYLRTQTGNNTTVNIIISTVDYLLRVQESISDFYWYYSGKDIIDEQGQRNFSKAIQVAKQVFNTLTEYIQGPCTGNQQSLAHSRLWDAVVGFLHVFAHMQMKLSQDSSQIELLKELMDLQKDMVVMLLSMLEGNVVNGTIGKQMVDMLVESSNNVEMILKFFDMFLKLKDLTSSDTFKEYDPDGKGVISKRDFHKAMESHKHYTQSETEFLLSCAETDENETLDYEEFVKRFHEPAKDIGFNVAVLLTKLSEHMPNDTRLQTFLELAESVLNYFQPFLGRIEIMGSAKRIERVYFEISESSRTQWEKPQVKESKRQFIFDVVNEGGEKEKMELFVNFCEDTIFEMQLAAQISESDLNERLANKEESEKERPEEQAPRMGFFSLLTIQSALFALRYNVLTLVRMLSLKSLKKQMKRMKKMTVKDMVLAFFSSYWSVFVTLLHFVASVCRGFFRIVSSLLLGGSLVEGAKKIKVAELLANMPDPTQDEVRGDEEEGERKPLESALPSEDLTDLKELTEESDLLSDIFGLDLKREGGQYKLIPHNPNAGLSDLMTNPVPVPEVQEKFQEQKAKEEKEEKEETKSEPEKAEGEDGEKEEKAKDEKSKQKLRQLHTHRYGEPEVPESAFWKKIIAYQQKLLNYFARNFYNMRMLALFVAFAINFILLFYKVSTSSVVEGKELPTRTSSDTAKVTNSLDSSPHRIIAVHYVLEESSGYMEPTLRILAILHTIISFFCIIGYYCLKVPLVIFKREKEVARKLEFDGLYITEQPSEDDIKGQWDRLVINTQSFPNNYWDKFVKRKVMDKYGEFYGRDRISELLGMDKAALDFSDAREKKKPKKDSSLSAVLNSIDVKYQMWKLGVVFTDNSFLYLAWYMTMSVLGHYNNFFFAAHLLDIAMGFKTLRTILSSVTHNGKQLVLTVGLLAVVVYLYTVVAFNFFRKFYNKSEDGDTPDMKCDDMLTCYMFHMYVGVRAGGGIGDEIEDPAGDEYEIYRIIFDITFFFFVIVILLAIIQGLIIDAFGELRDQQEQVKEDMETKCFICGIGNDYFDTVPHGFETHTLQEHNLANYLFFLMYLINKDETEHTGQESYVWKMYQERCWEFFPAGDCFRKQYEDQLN
Description: (§2) Intracellular Ca^2+ transients were monitored using single cell Ca^2+ imaging.
(§3) HEK293 cells may be loaded with a fluorescent Ca^2+ dye, fura-2-AM. SOICR, which manifests in the form of Ca^2+ oscillations, is continuously monitored by measuring the fluorescent changes using the single cell Ca^2+ imaging technique. Cells will be perfused with increasing concentrations (10 nM to 100 μM) of the compound. The frequency and amplitude of Ca^2+ oscillations under each condition will be determined and analyzed. Compounds that inhibit SOICR are expected to reduce the frequency of Ca^2+ oscillations, or abolish Ca^2+ oscillations.
as §1, with “Freshly isolated cells are loaded with a fluorescent Ca^2+ dye, fluo 4-AM, and bathed at high concentrations of extracellular Ca^2+ (5-10 mM) to induce SR Ca^2+ overload and SOICR.” left out

[9] = target: T2, mutant RyR2 channels (Mus musculus, UniProt E9Q401, R4495C); experiment: [3H]ryanodine binding, basal channel activity of RyR2; format: biochemical
T2 construct: expressed in transfected cells; host or cells: HEK293 (cell lysate, detergent-solubilised)
T2 sequence (E9Q401 whole entry R4495C): as the sequence (E9Q401 whole entry N4103K) above, with K4103N, R4495C counted along it
Source text: as §2
[^3H]Ryanodine binding has been widely used as a functional assay for assessing the activity of the RyR2 channel. […] These [^3H]ryanodine binding studies reveal whether suppression of SOICR by a compound is mediated by inhibition of the RyR2 channel activity.

[10] = target: T3, RyR2-R4496C mutant (Mus musculus, UniProt E9Q401, R4495C); experiment: SOICR in HEK293 cells expressing RyR2-R4496C mutant (fura-2 single cell Ca2+ imaging); format: cell-based; settings: up to 500 μM
T3 construct: expressed in transfected cells; host or cells: HEK293
T3 sequence (E9Q401 whole entry R4495C): as the sequence (E9Q401 whole entry N4103K) above, with K4103N, R4495C counted along it
Source text: as §2
This bioassay takes advantage of the finding that HEK293 cells expressing RyR2 mutants associated with cardiac arrhythmia and sudden death, readily display SOICR at elevated extracellular Ca^2+. […] This assay may be employed to determine the dose-dependent effect of each proposed compound on SOICR.
as §3

[11] = target: T4, RyR2 channel (Mus musculus, UniProt E9Q401, R4495C); experiment: Ca2+ dependence of [3H]ryanodine binding (sensitivity of RyR2 to Ca2+ activation, CICR); format: biochemical; settings: 300 μM (FIG. 4D)
T4 construct: expressed in transfected cells; host or cells: HEK293 (cell lysate, detergent-solubilised)
T4 sequence (E9Q401 whole entry R4495C): as the sequence (E9Q401 whole entry N4103K) above, with K4103N, R4495C counted along it
Source text: as §2
Alternatively, the effect of compounds on CICR may be determined using [^3H]ryanodine binding. As CICR is dependent, to a large extent, on the sensitivity of the RyR2 channel to activation by Ca^2+, the effect of a compound on CICR may be determined by assessing the impact of the compound on the sensitivity of the RyR2 channel to Ca^2+ activation. To this end, [^3H]ryanodine binding to the RyR2 channel in a wide range of Ca^2+ concentrations may be measured. The sensitivity (EC50) of [^3H]ryanodine binding to RyR2 in the absence and presence of a particular compound may be determined.

COc1ccccc1OCCNCC(O)COc1cccc2[nH]c3ccccc3c12 (stereo not shown) [Carvedilol]
concentration that completely blocks the β-adrenergic receptor [1]: 100 nM | IC50 ([2]; read-out: IC50 for suppressing SOICR): ~10 µM | IC50 ([2]; read-out: IC50 for suppressing the frequency of SOICR): ~10 µM | concentration that abolishes SOICR ([2]; rat ventricular myocytes, 10 mM extracellular Ca2+): 50 µM | IC50 [3]: 0.001 to 0.002 µM | absolute reduction in mortality [4]: ~7% | ventricular tachycardia after epinephrine (2 mg/kg) and caffeine (120 mg/kg) [5]: abolish epinephrine and caffeine-induced ventricular tachycardia; also recorded: no VT was observed

COc1ccccc1OCCN1CC(COc2cccc3[nH]c4ccccc4c23)OC1=O (stereo not shown) [Compound 4a]
suppression of SOICR [6]: limited effect

OC(CNCCOc1cc(Cl)c(Cl)cc1Cl)COc1cccc2[nH]c3ccccc3c12 (stereo not shown) [Compound 1c]
suppression of SOICR [6]: inactive

CC/C=C\C/C=C\C/C=C\C/C=C\C/C=C\CCCC(=O)O [EPA, eicosapentenoic acid]
effect on RyR2 channel activity [7]: inhibit RyR2 channel activity

CC/C=C\C/C=C\C/C=C\C/C=C\C/C=C\C/C=C\CCC(=O)O [DHA, docosahexenoic acid]
effect on RyR2 channel activity [7]: inhibit RyR2 channel activity

COc1ccccc1OCCN1CC(COc2cccc3[nH]c4ccccc4c23)OCC1=O (stereo not shown) [Compound 2a]
β-blocking activity (block of isoproterenol-induced RyR2 S2030 phosphorylation) ([1]; 1-1000 nM, preliminary, listed as VK-II-36): little β-blocking activity; also recorded: does not block the β-adrenergic receptor | effect on SOICR ([8]; HEK293 RyR2-N4104K, 2 mM [Ca2+]o, various concentrations): abolish SOICR | concentration at which SOICR is suppressed ([8]; HEK293 cells (FIG. 5)): ~30 µM | ventricular tachycardia after epinephrine (2 mg/kg) and caffeine (120 mg/kg) ([5]; listed as VK-II-36): abolish epinephrine and caffeine-induced ventricular tachycardia; also recorded: no VT was observed

c1ccc2c(c1)[nH]c1cccc(OCC3CN(CCOC4CCCCC4)CCO3)c12 (stereo not shown) [Compound 3d]
suppression of SOICR [6]: limited effect

COc1cc(Cl)c(Cl)cc1OCCNCC(O)COc1cccc2[nH]c3ccccc3c12 (stereo not shown) [Compound 1b]
concentration that completely blocks the β-adrenergic receptor [1]: 100 nM | suppression of SOICR [6]: activity comparable to that of carvedilol (1a)

CC(C)NCC(O)c1ccc(NS(C)(=O)=O)cc1 (stereo not shown) [Sotalol, sotalol]
effect on basal channel activity ([3H]ryanodine binding) ([9]; cell lysates, 3 nM Ca2+, various concentrations of drugs (FIG. 4C)): not sotalol, inhibited basal channel activity | effect on channel activity of RyR2 ([9]; summary statement): absolutely no effect on RyR2 | effect on SOICR ([2]; rat ventricular myocytes, up to 300 μM): no effect; also recorded: does not suppress SOICR at all | effect on SOICR [10]: no significant effect; also recorded: not sotalol inhibited SOICR | effect on Ca2+ dependence of [3H]ryanodine binding / sensitivity of RyR2 to Ca2+ activation [11]: no significant effect

COc1ccccc1OCCN1CCOC(COc2cccc3[nH]c4ccccc4c23)C1 (stereo not shown) [Compound 3a]
suppression of SOICR [6]: limited effect

OC(CNCCOC1CCCCC1)COc1cccc2[nH]c3ccccc3c12 (stereo not shown) [Compound 1d]
suppression of SOICR [6]: inactive; also recorded: limited effect
